Assay results taken from the supplement of paper PMC10307832.

How the values were obtained:
Experiment in all cases: relative viability (nuclei count vs DMSO), 5 days (fraction); higher = more cells survive
IPA-3 = compound: C1=CC=C2C(=C1)C=CC(=C2SSC3=C(C=CC4=CC=CC=C43)O)O [IPA-3]
Summary of the method: (§1)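 Lung cancer cell lines were seeded into 1536-well plates, kept overnight at 37 °C and pinned with five library-drug doses (not always all listed) spaced by √10. After 5 days, nuclei were Hoechst-stained, imaged at 4× and counted with MetaXpress. Viability is treated-well nuclei over vehicle-well nuclei, taken as a median across plates. Plates needed control CV below 25% and at least one doubling.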

Doramapimod = compound: Cc1ccc(-n2nc(C(C)(C)C)cc2NC(=O)Nc2ccc(OCCN3CCOCC3)c3ccccc23)cc1 [Doramapimod]
Summary of the method: as §1

RAF265 = compound: Cn1c(Nc2ccc(C(F)(F)F)cc2)nc2cc(Oc3ccnc(-c4ncc(C(F)(F)F)[nH]4)c3)ccc21 [RAF265]
Summary of the method: as §1

Row | Cell Line | relative viability (IPA-3; 0.2 µM) | relative viability (IPA-3; 0.6325 µM) | relative viability (IPA-3; 2 µM) | relative viability (IPA-3; 6.325 µM) | relative viability (IPA-3; 20 µM) | relative viability (Doramapimod; 0.02 µM) | relative viability (Doramapimod; 0.06325 µM) | relative viability (Doramapimod; 0.2 µM) | relative viability (Doramapimod; 0.6325 µM) | relative viability (Doramapimod; 2 µM) | relative viability (RAF265; 0.01 µM) | relative viability (RAF265; 0.03162 µM) | relative viability (RAF265; 0.1 µM) | relative viability (RAF265; 0.3162 µM) | relative viability (RAF265; 1 µM)
1 | NCI-H2342 | 1.07 | 1.08 | 0.975 | 1.11 | 1.14 | 1.05 | 0.918 | 0.998 | 1.09 | 0.933 | 0.937 | 1.06 | 1.04 | 0.895 | 0.85
2 | NCI-H2347 | 1.21 | 0.962 | 1 | 1.01 | 1.1 | 1.05 | 0.973 | 1.01 | 0.964 | 0.959 | 1.16 | 0.975 | 0.984 | 0.822 | 0.528
3 | NCI-H2405 | 1.06 | 0.994 | 1.03 | 1.02 | 1.06 | 1.02 | 1.03 | 0.973 | 1.07 | 0.914 | 1.04 | 0.976 | 1 | 0.871 | 0.597
4 | NCI-H3122 | 1.02 | 0.98 | 0.981 | 1.04 | 0.999 | 0.995 | 1 | 0.995 | 0.989 | 1 | 1.02 | 1.1 | 1.05 | 0.885 | 0.943
5 | PC-3 [JPC-3] | 1.09 | 1.07 | 1.01 | 0.96 | 1 | 1.15 | 1.11 | 1.1 | 1.13 | 0.904 | 1.07 | 1 | 1.12 | 0.488 | 0.743
6 | PC-14 | 1.16 | 0.963 | 0.936 | 0.898 | 1.09 | 1.06 | 0.998 | 0.968 | 1.14 | 0.933 | 1.02 | 0.967 | 1.1 | – | 0.845
7 | RERF-LC-KJ | 1.14 | 0.943 | 0.946 | 0.991 | 1.07 | 1.09 | 1.03 | 1.07 | 1.02 | 0.999 | 1.03 | 0.974 | 0.987 | 0.791 | 0.715
8 | SK-LU-1 | 1.35 | 0.981 | 1.08 | 0.985 | 1.16 | 1.02 | 1.07 | 1.11 | 1.14 | 1.12 | 1.1 | 0.893 | 0.858 | 0.56 | 0.494
9 | SK-MES-1 | 1.08 | 0.97 | 1.07 | 0.923 | 1.02 | 1.01 | 0.934 | 0.95 | 1.05 | 0.926 | 1.03 | 0.805 | 0.634 | 0.441 | 0.283
10 | SW 900 | 1.13 | 0.698 | 0.686 | 0.775 | 0.775 | 0.893 | 1.03 | 0.941 | 0.945 | 0.737 | 1.06 | 0.792 | 0.856 | 0.679 | 0.527
11 | SW 1573 | 1.13 | 0.919 | 1.01 | 0.94 | 0.696 | 0.946 | 0.9 | 0.844 | 0.952 | 0.838 | 1.18 | 0.89 | 0.955 | 0.98 | 0.573
